Test results taken from article PMC11662161 (Neuro-Oncology Advances, 2024).
Several values for one entry are separate records, joined by “and”; a condition that tells them apart may be missing. Equal values may be shown once. Read-outs that look alike come from different tables or passages of the source.

Legend:
[1] = system: patients with recurrent HGG; experiment: Phase II trial NCT01967810: neurocognitive function testing (HVLT-R, TMT A/B, COWA; reliable change index); format: in vivo, human; conditions: for neurocognitive function stable or improved (RCI), across the battery of tests: end of treatment visit
Experimental: The end of treatment assessment was only performed if no neurocognitive assessment was done within 30 (± 3) days. Information regarding the patient’s demographic background was collected. Neurocognitive test administrators were trained and provided with a manual to ensure standardized test administration. Neurocognitive test results were evaluated and read centrally. Three domains of neurocognitive function were measured as exploratory endpoints in this study: memory, visuomotor scanning speed (eg, complex visual scanning with a motor component), and executive function (eg, mental flexibility). The neurocognitive battery included the following tests: Hopkins Verbal Learning Tests—Revised (HVLT-R Total Recall, Delayed Recall, Delayed Recognition), Trail Making Test Part A and Part B[18] (TMBTA, TMBTB), and Controlled Oral Word Association (COWA).[19] […]

[2] = system: recurrent high-grade glioma (HGG); conditions: ref Dmello et al., submitted to Neuro-Oncology Advances, cited from earlier work
Text: Variable response to paclitaxel between patients is a well-known phenomenon for several cancers, with ~50% of patients being susceptible to this drug as a monotherapy. We recently reported endoplasmic reticulum translocon complex protein SSR3 as a predictive biomarker for glioma and breast cancer susceptibility to this drug.[22] In a companion manuscript (Dmello et al., submitted to Neuro-Oncology Advances), we report an analysis of available tumor samples from this phase II trial (NCT01967810), where we evaluated the correlation with baseline SSR3 expression with OS on this cohort. This study ...

[3] = system: recurrent high-grade glioma (HGG); experiment: Phase II trial NCT01967810: efficacy (RANO response, PFS, OS); format: in vivo, human; conditions: for duration (of response) rate: identical at 3, 6 and 12 months
Text: The protocol was reviewed and approved by the institutional review board of each participating center. All patients gave written informed consent for trial participation. According to 2007 WHO classification used in this study, HGG included grade 3 AGs such as anaplastic astrocytomas (AAs), anaplastic oligodendrogliomas (AOs), and anaplastic oligoastrocytomas (AOAs), as well as grade 4 GBM.[16] […] Additionally, a Karnofsky Performance Scale (KPS) score ≥ 80, neurologic stability with patients receiving stable doses of corticosteroids and anticonvulsants, and normal hepatic, renal, and hematologic function with ≥ 3 months of expected survival were requirements for inclusion. In patients with gliomas refractory to bevacizumab, radiological confirmation of tumor progression during bevacizumab therapy was necessary.
Gadolinium-enhanced magnetic resonance imaging of the brain was used to evaluate disease extent beginning at baseline and continued every two treatment cycles (ie, every 6 ± 2 weeks) until disease progression or unacceptable treatment toxicity. […] The Response Assessment in Neuro-Oncology (RANO) was utilized for two-dimensional intracranial tumor assessment.[17]
The primary objectives of the study were to determine (1) the objective response rate (ORR) in bevacizumab-naïve recurrent GBM patients (Arm 1), (2) progression-free survival rate at 3 months (PFS3) in the bevacizumab-refractory recurrent GBM patients (Arm 2), and (3) ORR in recurrent AG patients (Arm 3). The arms were predefined. Bevacizumab was not continued in bevacizumab-refractory patients.
The secondary objectives of this study were to determine (1) the ORR in Arm 2; (2) number of patients without progression at 3, 6, and 12 months in Arms 1 and 3; (3) number of patients without progression at 6 and 12 months in Arm 2; (4) median progression-free survival in each arm; (5) median duration of response in each arm; (6) median overall survival (OS) in each arm; (7) safety and tolerability; and (8) plasma pharmacokinetic profile.
ORR was defined as the proportion of patients with a CR or PR. The assessment was made according to RANO criteria based on the investigator’s assessment.[17] The ORR was the primary endpoint for Arms 1 and 3 and a secondary endpoint for Arm 2. ORR for each arm was calculated, and a 2-sided 95% confidence interval was provided using the exact method based on the binomial distribution. PFS was defined as the time from study enrollment to documented disease progression as determined by the local investigator, clear clinical progression in the absence of a brain MRI determination of progression, or death from any cause, whichever occurred first. PFS was the primary endpoint for Arm 2 and a secondary endpoint for Arms 1 and 3. Patients with a clinical determination of progression underwent an MRI assessment. If a clinical determination of progression for a patient was confirmed by an MRI, the date of the MRI was considered as the progression date for that patient. The data for patients who were still alive and free from disease progression at the time of data cutoff were administratively censored on the last assessment (or, if no post-baseline tumor assessment, at the time of first dose plus 1 day). Data for patients who were lost to follow-up prior to documented disease progression were censored at the last disease assessment date when the patient was known to be disease progression-free. Kaplan–Meier methodology was used to estimate the 3-month PFS rate, and 95% confidence intervals for PFS rate were computed using Greenwood’s formula by arms. In addition, the median PFS was calculated for each arm.

[4] = system: patients with recurrent HGG; experiment: Phase II trial NCT01967810: safety and tolerability (adverse events, NCI CTCAE v4.0; treatment discontinuation)
Experimental: Subsequently, a total of 69 patients were enrolled at 600 mg/m^2 as a starting dose. Dose reductions or delays were allowed if toxicity was observed. Patients were monitored for a minimum of 1 h after the completion of each infusion.
Dose reductions were mandatory for all patients who experienced any (life-threatening) Grade 4 toxicity, and for selected Grade 3 toxicities, such as Grade 3 pneumonitis, Grade 3 peripheral neuropathy or CNS toxicity, or Grade 3 cardiac adverse events (AEs).
Evaluation of safety included the analysis of AEs and the analysis of laboratory and vital signs data using the safety population. Verbatim descriptions of AEs were mapped according to the Medical Dictionary for Regulatory Activities (MedDRA) v17.0 or later thesaurus terms and graded according to the NCI CTCAE v4.0. […] Laboratory data was analyzed with shift tables and summaries of change from baseline to maximum post-treatment value based on local lab normal ranges. Change from baseline in vital signs were summarized. Neurocognitive function test data was analyzed by descriptive statistics (mean, SD and median) and change in neurocognitive function from baseline to each follow-up time point was categorized as improved, stable, or declined based on the reliable change index (RCI) for each test.

[5] = system: recurrent glioma tumors; conditions: following a single intravenous infusion; cited from earlier work
Text: (§1) The overall safety profile was favorable and consistent with the known side effect profile of unconjugated paclitaxel.

[6] = system: brain metastases from breast tumors and other advanced solid tumors; conditions: doses ≥ 420 mg/m^2, cited from earlier work
Text: as §1

[7] = % of patients, N = 73, all arms
[8] = % of patients, N = 73, table cell prints n (%)

paclitaxel trevatide [ANG1005]
neurocognitive function stable or improved (RCI), across the battery of tests ([1]; % of patients, Arm 1 (n = 5)): 40–100%
CTB composite score: decline in neurocognitive function ([1]; % of patients, Arm 1, EOT): 40%
CTB composite score: stable neurocognitive function ([1]; % of patients, Arm 1, EOT): 60%
neurocognitive function stable or improved (RCI), across the battery of tests ([1]; % of patients, Arm 2 (n = 4)): 50–75%
CTB composite score: decline in neurocognitive function ([1]; % of patients, Arm 2, EOT): 50%
CTB composite score: stable neurocognitive function ([1]; % of patients, Arm 2, EOT): 50%
neurocognitive function stable or improved (RCI), across the battery of tests ([1]; % of patients, Arm 3 (n = 13)): 69–100%
CTB composite score: decline in neurocognitive function ([1]; % of patients, Arm 3, EOT): 25%
CTB composite score: improved neurocognitive function ([1]; % of patients, Arm 3, EOT): 8%
CTB composite score: stable neurocognitive function ([1]; % of patients, Arm 3, EOT): 67%
CTB composite score: improved neurocognitive function ([1]; Arm 1, EOT): no patients
CTB composite score: improved neurocognitive function ([1]; Arm 2, EOT): no patients
median OS ([2]; patients with high SSR3 expression, 95% CI 14.59, NA, P = .2 vs low): 18 months
median OS ([2]; patients with low SSR3 expression, 95% CI 5.41, NA): 9 months
PFS rate ([3]; 3 months, Arm 1, 95% CI: 12.2, 56.4): 33.3%
PFS rate ([3]; 3 months, Arm 3, 95% CI: 18.9, 53.0): 35.7%
median duration of response ([3]; 3 responders (2 in Arm 1, 1 in Arm 3), 95% CI: 2.1, NA): 13.4 months
PFS rate ([3]; 6 months, Arm 1, 95% CI: 8.3, 49.6): 26.7%
PFS rate ([3]; 6 months, Arm 3, 95% CI: 18.9, 53.0): 35.7%
PFS rate ([3]; 12 months, Arm 1, 95% CI: 2.2, 34.6): 13.3%
PFS rate ([3]; 12 months, Arm 3, 95% CI: 11.8, 44.4): 26.8%
clinical benefit rate (SD or better) ([3]; Arm 1, mITT): 46.6%
progressive disease ([3]; Arm 1, mITT, 8 subjects): 53.3%
median OS ([3]; Arm 1, mITT, 95% CI: 3.4, 14.6): 13.4 months
median OS ([3]; Arm 1, safety population, 95% CI: 3.06, 13.67): 6.74 months
median duration of response ([3]; Arm 1, 95% CI: 2.1, 13.4): 7.75 months
duration (of response) rate ([3]; Arm 1, 95% CI: 0.6, 91.0): 50.0%
responders (CR or PR) ([3]; Arm 2 (bevacizumab-refractory GBM), mITT, secondary endpoint): none
PFS rates ([3]; Arm 2, at each time point (3, 6, 12 months), PFS3 is the primary endpoint): 0
clinical benefit rate (SD or better) ([3]; Arm 2, mITT): 22.2%
subjects who progressed or died ([3]; Arm 2, mITT): All subjects
progressive disease ([3]; Arm 2, mITT, 7 subjects): 77.8%
median OS ([3]; Arm 2, mITT, 95% CI: 1.9, 9.7): 5.8 months
median OS ([3]; Arm 2, safety population, 95% CI: 1.94, 6.67): 3.02 months
median duration of response ([3]; Arm 3): not reached
clinical benefit rate (SD or better) ([3]; Arm 3, mITT): 53.6%
progressive disease ([3]; Arm 3, mITT, 13 subjects): 46.4%
median OS ([3]; Arm 3, mITT, 95% CI: 10.7, 35.3): 18.2 months
median OS ([3]; Arm 3, safety population, 95% CI: 8.67, 21.95): 16.03 months
duration (of response) rate ([3]; Arm 3, 95% CI: 100,100): 100%
overall median PFS ([3]; across all 3 arms, mITT, investigator-assessed, 95% CI: 1.4, 2.1): 1.4 months
overall ORR (CR or PR, RANO, investigator) ([3]; mITT n = 52, all arms, 3 subjects, 95% CI: 1.2, 15.9): 5.8%
subjects who progressed or died ([3]; mITT n = 52, 47 subjects): 90.4%
overall median OS ([3]; mITT population n = 52, 95% CI: 7.03, 14.78): 12.94 months
progressive disease ([3]; overall, mITT n = 52, 28 subjects): 53.8%
duration (of response) rate ([3]; overall, 95% CI: 5.4, 94.5): 66.7%
overall median OS ([3]; safety population n = 73, 95% CI: 6.34, 12.94): 8.67 months
most common AEs: alopecia [4, 7]: 31.5% and 32%
most common AEs: fatigue [4, 7]: 30.1% and 30%
most common AEs: hematologic [4, 7]: 32.9%
most commonly reported AEs: neutropenia [4, 7]: 33%
patients with a Grade 5 SAE ([4]; % of patients, N = 73, 3 patients): 4.1%
patients with a Grade 4 SAE ([4]; % of patients, N = 73, 9 patients): 12.3%
patients with a Grade 3 SAE ([4]; % of patients, N = 73, 19 patients): 26.0%
related AEs by SOC: gastrointestinal disorders ([4]; % of patients, N = 73, 34 patients): 46.6%
related AEs by SOC: skin and subcutaneous tissue disorders ([4]; % of patients, N = 73, 35 patients): 47.9%
related AEs by SOC: blood and lymphatic system disorders ([4]; % of patients, N = 73, 37 patients): 50.7%
related AEs by SOC: general disorders and administration site reactions ([4]; % of patients, N = 73, 42 patients): 57.5%
AEs: skin and subcutaneous disorders ([4]; % of patients, N = 73, 44 patients): 60.3%
AEs: gastrointestinal disorders ([4]; % of patients, N = 73, 45 patients): 61.6%
AEs: general disorders and administration site reactions ([4]; % of patients, N = 73, 50 patients): 68.5%
AEs: nervous system disorders including peripheral neuropathy ([4]; % of patients, N = 73, 57 patients): 78.1%
SAEs related to ANG1005: patients reporting at least one related SAE [4, 8]: 28.8%
SAEs: patients reporting at least one event [4, 8]: 45.2%
treatment discontinued due to AEs ([4]; % of subjects, N = 73, 7 subjects): 9.6%
number of AEs that led to death ([4]; Arm 3 (hydrocephalus)): one
patients who experienced at least one AE ([4]; N = 73, all arms): All patients
number of AEs that led to death ([4]; all arms, N = 73, only septic shock considered potentially related to ANG1005): 3
transport across the BBB and tumor penetration [5]: tumor penetration at therapeutic concentrations
overall PR, non-CNS peripheral metastases response ([6]; 4/16 patients): 25%
overall partial response (PR), CNS response ([6]; 4/18 patients): 22%
stable disease (SD), CNS response ([6]; 10/18 patients): 56%
